{
  "source": "patent US20020183384A1",
  "about": "“Methods of treating nuclear factor-kappa B mediated diseases and disorders” (priority 2001, published 2002)",
  "data": [
    {"system": "NF-κB mediated transcription", "test": "NF-κB driven β-lactamase reporter assay in ECV-304 NF-κB.βlaZ cells (AURORA CCF2 fluorescence)", "format": "cell-based, human", "settings": "10 μM compound; ECV-304 NF-κB.βlaZ cells stimulated with 10 ng/mL TNF-α or 100 pg/mL IL-1β, 6 hours at 37° C.; inhibition of maximum blue/green ratio", "description": "(§1) Introduction: Described below is an in vitro, cell-based, high throughput screening assay that reliably identifies inhibitors of NF-κB mediated transcription.\n(§2) The assay takes advantage of AURORA (Aurora Bioscience Corporation, La Jolla, Calif.) fluorescence technology. Endothelial cell vein-304 (ECV-304) cells, an endothelial-like immortalized cell type, may be stably transfected with a plasmid vector containing the cDNA for the enzyme β-lactamase (under the control of a basal promoter, Stratagene pNFκB-luc vector) and 5 copies of an human immunodeficiency virus-1 (HIV-1) NF-κB binding site. ECV-304 cells are described by Takahashi K. et al. in Spontaneous Transformation and Immobilization of Human Endothelial Cells, In Vitro Cell. Dev. Biol. 1990;25:265-274. Activation of NF-κB in ECV-304 by cytokines such as TNF-α or interleuken-1 beta (IL-1β) results in the production of β-lactamase, which cleaves a green fluorescent substrate (excitation/emission wavelengths 395 nm1530 nm) to yield a blue fluorescent product (excitation/emission wavelengths 395 nm/460 nm). Visually, the uncleaved green fluorescent substrate is sequestered intracellularly and emits green fluorescence, while the cleaved product emits blue fluorescence. Fluorescence is quantitated spectrophotometrically, and the spectral intensity of blue fluorescence versus green fluorescence can be used to calculate the degree of activation of NF-κB.\n(§3) The assay was performed as outlined here and described in detail below. ECV-304 cells permanently transfected with the NF-κB driven β-lactamase gene (ECV-304 NF-κB.βlaZ) were plated in clear-bottom, black 96-well plates (1.25×10^4 cells/well) in media-199 (M-199) media containing 2% fetal bovine serum (FBS). […] The AURORA fluorescent disclosing reagent was then added. After one additional hour, the plates were read in a fluorometer at the blue 395 nm/460 nm (excitation/emission) and green 395 nm/530 nm wavelengths. Then the blue/green emission ratio was calculated. […] An IC50 for said sulfonylaminocarbonyl derivative was determined from a dose-response curve. This assay was designed to be optionally run in either high or low throughput screening modes.\n(§4) Five copies of the HIV-1 NF-κB binding site (5′-[…]-3′) along with a TATA box were inserted into the EcorRI/BamHI sites of plasmid pMCRBlaZ to create plasmid p5×KBBlaZ, which procedure is illustrated in Scheme 1 below. [formula]\n(§5) Cells were selected for antibiotic resistance with Zeocin for approximately 2 weeks. After the stable population had been expanded to a significant number of cells, it was stimulated with IL-1β and stained with AURORA CCF2 dye, a membrane permeant, intracellularly-trapped, fluorescent substrate. Cells that fluoresced blue (indicating a positive response of the NF-κB/β-lactamase reporter to stimulation by IL-1β) in the stimulated/stained population were then sorted by flow cytometry into a pool. The pool was expanded and stained with CCF2, and then the cells that fluoresced green from this unstimulated population (indicating a low background of the NF-κB/β-lactamase reporter construct) were cloned by flow cytometry after adding 1 cell per well in 96-well plates. Clones were allowed to expand. Each cloned cell line was then examined for fold stimulation after stimulation with IL-1β using a CCF2 reporter assay, and these stimulated cells were compared to unstimulated cells.\n(§6) Cells: ECV-304 NF-κB β-Lactamase clone 1E8\n(§7) Inhibitors: Prepared stock solutions of aminosulfonyl derivatives at 10 mM concentration in DMSO;\n(§8) c) Added 10 μL of B into appropriate well in assay plate (the final concentration of drug is 10 μM), and […]", "units": {"Percent Inhibition at 10 μM": "%"}, "values": [
      {"molecule": "CC(C)c1cc(-c2cc(C(C)C)c(OC(=O)NS(=O)(=O)Oc3c(C(C)C)cccc3C(C)C)c(C(C)C)c2)cc(C(C)C)c1OC(=O)NS(=O)(=O)Oc1c(C(C)C)cccc1C(C)C", "note": "[Example 134, Carbamic acid, [[2,6-bis(1-methylethyl)phenoxy]sulfonyl]-, 3,3′,5,5′-tetrakis(1-methylethyl) [1,1′-biphenyl]-4,4′-diyl ester]", "Percent Inhibition at 10 μM": 18.39}
    ]},
    {"system": "NF-κB mediated transcription", "test": "NF-κB driven β-lactamase reporter assay in ECV-304 NF-κB.βlaZ cells (AURORA CCF2 fluorescence)", "format": "cell-based, human", "settings": "Homo sapiens, ECV-304, 6 h, 10 μM compound; ECV-304 NF-κB.βlaZ cells stimulated with 10 ng/mL TNF-α or 100 pg/mL IL-1β, 6 hours at 37° C.; inhibition of maximum blue/green ratio; read-out: Percent Inhibition at 10 μM", "description": "as §1, §2, §3, §4, §5, §6, §7, §8", "units": {"inhibition at 10 µM": "%"}, "values": [
      {"molecule": "CCCCN(CCCC)S(=O)(=O)N(C)C(=O)Nc1c(C(C)C)cccc1C(C)C", "note": "[Example 99, Urea, N′-[2,6-bis(1-methylethyl)phenyl]-N-[(dibutylamino)sulfonyl]-N-methyl-]", "inhibition at 10 µM": "< 10"},
      {"molecule": "COC(=O)c1cc(C(C)C)c(OS(=O)(=O)NC(=O)Cc2c(C(C)C)cc(C(C)C)cc2C(C)C)c(C(C)C)c1", "note": "[Example 228, 3,5-Diisopropyl-4-{[(2,4,6-triisopropyl-phenyl)-acetyl]sulfamoyloxy}-benzoic acid methyl ester]", "inhibition at 10 µM": 76.1},
      {"molecule": "CCCCCCCCCCCCCC(C)(C)S(=O)(=O)NC(=O)Nc1c(OC)cc(OC)cc1OC", "note": "[Example 249, N-[2,4,6-trimethoxyphenyl]-N′-(2-methyl-2-pentadecylsulfonyl)urea]", "inhibition at 10 µM": "< 10"},
      {"molecule": "CC(C)c1cccc(C(C)C)c1NC(=O)NS(=O)(=O)N1CCCC1", "note": "[Example 70, Urea, N-[2,6-bis(1-methylethyl)phenyl]-N′-(1-pyrrolidinylsulfonyl)-]", "inhibition at 10 µM": "< 10"},
      {"molecule": "CC(C)c1cc(C(C)C)c(CC(=O)NS(=O)(=O)Oc2c(C(C)C)cc(NC(=O)Nc3c(C(C)C)cccc3C(C)C)cc2C(C)C)c(C(C)C)c1", "note": "[Example 215, [(2,4,6-Triisopropyl-phenyl)-acetyl]-sulfamic acid 4-[3-(2,6-diisopropyl-phenyl)-ureido]-2,6-diisopropyl-phenyl ester]", "inhibition at 10 µM": 74.7},
      {"molecule": "CCCCCCCCCCCCCCCCC(C)S(=O)(=O)NC(=O)Nc1c(OC)cc(OC)cc1OC", "note": "(stereo not shown) [Example 247, N-[2,4,6-trimethoxyphenyl]-N′-(2-octadecylsulfonyl)urea]", "inhibition at 10 µM": 14.8},
      {"molecule": "CC(C)C[C@H](N)C(=O)Nc1cc(C(C)C)c(OS(=O)(=O)NC(=O)Cc2c(C(C)C)cc(C(C)C)cc2C(C)C)c(C(C)C)c1", "note": "[Example 216, [2-(2,4,6-Triisopropyl-phenyl)-acetyl]-sulfamic acid 4-((S)-2-amino-4-methyl-pentanoylamino)-2,6-diisopropyl-phenyl ester; compound with trifluoro-acetic acid]", "inhibition at 10 µM": 65.4},
      {"molecule": "CC(C)c1cccc(C(C)C)c1NC(=O)NS(=O)(=O)Oc1c(C(C)C)cccc1C(C)C", "note": "[Example 95, Sulfamic acid, [[[2,6-bis(1-methylethyl)phenyl]amino]carbonyl]-, 2,6-bis(1-methylethyl)phenyl ester]", "inhibition at 10 µM": 33.1},
      {"molecule": "CCCCCCC(C)OC(=O)NS(=O)(=O)Oc1c(C(C)C)cccc1C(C)C", "note": "(stereo not shown) [Example 109, Carbamic acid, [[2,6-bis(1-methylethyl)phenoxy]sulfonyl]-, 1-methylheptyl ester]", "inhibition at 10 µM": 51.4},
      {"molecule": "CC(C)c1cc(C(C)C)c(CC(=O)NS(=O)(=O)Oc2c(C(C)C)cc(NC(=O)[C@@H](N)C(C)C)cc2C(C)C)c(C(C)C)c1", "note": "[Example 232, [2-(2,4,6-Triisopropyl-phenyl)-acetyl]-sulfamic acid 4-((S)-2-amino-3-methyl-butyrylamino)-2,6-diisopropyl-phenyl ester; compound with trifluoro-acetic acid]", "inhibition at 10 µM": 76.9},
      {"molecule": "CC(C)c1cccc(C(C)C)c1OS(=O)(=O)NC(=O)OC1[C@@H](C(C)C)CCC[C@H]1C(C)C", "note": "(stereo partly drawn) [Example 164, Carbamic acid, [[2,6-bis(1-methylethyl)phenoxy]sulfonyl]-, (2R,6S)-2,6-bis(1-methylethyl)cyclohexyl ester]", "inhibition at 10 µM": 55.2},
      {"molecule": "CC(C)c1cccc(C(C)C)c1OS(=O)(=O)NC(=O)C1c2ccccc2-c2ccccc21", "note": "[Example 174, (9H-Fluorene-9-carbonyl)-sulfamic acid 2,6-diisopropyl-phenyl ester]", "inhibition at 10 µM": 32.2},
      {"molecule": "CCCCCCCCCCCCCCCCCCOS(=O)(=O)NC(=O)Nc1c(C(C)C)cccc1C(C)C", "note": "[Example 60, Sulfamic acid, [[[2,6-bis(1-methylethyl)phenyl]amino]carbonyl]-, octadecyl ester]", "inhibition at 10 µM": "< 10"},
      {"molecule": "CC(C)c1cccc(C(C)C)c1NC(=O)NS(=O)(=O)N1CCC(c2ccccc2)CC1", "note": "[Example 35, N-[2,6-bis(1-methylethyl)phenyl]-N′-[(4-phenyl-1-piperidinyl)-sulfonyl]-urea]", "inhibition at 10 µM": "< 10"}
    ]},
    {"system": "NF-κB mediated transcription", "test": "NF-κB driven β-lactamase reporter assay in ECV-304 NF-κB.βlaZ cells (AURORA CCF2 fluorescence)", "format": "cell-based, human", "settings": "Homo sapiens; 10 μM compound; ECV-304 NF-κB.βlaZ cells stimulated with 10 ng/mL TNF-α or 100 pg/mL IL-1β, 6 hours at 37° C.; inhibition of maximum blue/green ratio; read-out: Percent Inhibition at 10 μM", "description": "as §1, §2, §3, §4, §5, §6, §7, §8", "units": {"inhibition at 10 µM": "%"}, "values": [
      {"molecule": "CC(C)(C)c1cccc(C(C)(C)C)c1OC(=O)NS(=O)(=O)Oc1c(C(C)(C)C)cccc1C(C)(C)C", "note": "[Example 100, Carbamic acid, [[2,6-bis(1,1-dimethylethyl)phenoxy]sulfonyl]-, 2,6-bis(1,1-dimethylethyl)phenyl ester]", "inhibition at 10 µM": 50},
      {"molecule": "Cc1cccc(C(C)(C)C)c1OC(=O)NS(=O)(=O)Oc1c(C(C)C)cccc1C(C)C", "note": "[Example 137, Carbamic acid, [[2,6-bis(1-methylethyl)phenoxy]sulfonyl]-, 2-(1,1-dimethylethyl)-6-methylphenyl ester]", "inhibition at 10 µM": "< 10"},
      {"molecule": "CC(C)c1cccc(C(C)C)c1OC(=O)NS(=O)(=O)Oc1ccccc1", "note": "[Example 97, Carbamic acid, (phenoxysulfonyl)-, 2,6-bis(1-methylethyl)phenyl ester]", "inhibition at 10 µM": "< 10"},
      {"molecule": "COc1cc(C(C)C)c(OC(=O)NS(=O)(=O)Oc2c(C(C)C)cccc2C(C)C)c(C(C)C)c1", "note": "[Example 123, Carbamic acid, [[2,6-bis(1-methylethyl)phenoxy]sulfonyl]-, 4-methoxy-2,6-bis(1-methylethyl)phenyl ester]", "inhibition at 10 µM": "< 10"},
      {"molecule": "CC(C)c1cccc(C(C)C)c1OS(=O)(=O)NC(=O)Oc1c(C(C)(C)C)cccc1C(C)(C)C", "note": "[Example 91, Carbamic acid, [[2,6-bis(1-methylethyl)phenoxy]sulfonyl]-, 2,6-bis(1,1-dimethylethyl)phenyl ester]", "inhibition at 10 µM": 39.7},
      {"molecule": "Cc1cc(C(C)(C)C)c(OC(=O)NS(=O)(=O)N(C(C)C)C(C)C)c(C(C)(C)C)c1", "note": "[Example 32, Carbamic acid, [[bis(1-methylethyl)amino]sulfonyl]-, 2,6-bis(1,1-dimethylethyl)-4-methylphenyl ester]", "inhibition at 10 µM": 20.3},
      {"molecule": "Cc1cccc(C)c1OC(=O)NS(=O)(=O)Oc1c(C(C)C)cccc1C(C)C", "note": "[Example 179, Carbamic acid, [[2,6-bis(1-methylethyl)phenoxy]sulfonyl]-, 2,6-dimethylphenyl ester]", "inhibition at 10 µM": "< 10"},
      {"molecule": "CC(C)c1cccc(C(C)C)c1OS(=O)(=O)NC(=O)Oc1ccc(F)cc1F", "note": "[Example 151, Carbamic acid, [[2,6-bis(1-methylethyl)phenoxy]sulfonyl]-, 2,4-difluorophenyl ester]", "inhibition at 10 µM": "< 10"},
      {"molecule": "Cc1cc(C(C)(C)C)c(OC(=O)NS(=O)(=O)NCC(c2ccccc2)c2ccccc2)c(C(C)(C)C)c1", "note": "[Example 12, Carbamic acid, [[(2,2-diphenylethyl)amino]sulfonyl]-, 2,6-bis(1,1-dimethylethyl)-4-methylphenyl ester]", "inhibition at 10 µM": 57},
      {"molecule": "Cc1cc(C(C)(C)C)c(OC(=O)NS(=O)(=O)N(C)CCc2ccccc2)c(C(C)(C)C)c1", "note": "[Example 38, Carbamic acid, [[methyl(2-phenylethyl)amino]sulfonyl]-, 2,6-bis(1,1-dimethylethyl)-4-methylphenyl ester]", "inhibition at 10 µM": 31.5}
    ]}
  ]
}
